Measured values from PubChem BioAssay (NCI).
Values joined by “and” are separate entries in the source; they are usually repeats but may differ in a detail not shown here. Equal entries are not always repeated.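 A five-concentration, 48-hour dose response in 96-well plates underlies each endpoint, interpolated linearly between surrounding concentrations. Abbreviation: GI50, concentration required for 50% inhibition of growth. TGI denotes the concentration required for complete inhibition of growth.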

Experiments:
Experiment in all cases: growth of human tumour cells (NCI), 48 h
K-562 leukemia = tested on: K-562 leukemia
CCRF-CEM leukemia = tested on: CCRF-CEM leukemia
HL-60(TB) leukemia = tested on: HL-60(TB) leukemia
SW-620 colon = tested on: SW-620 colon
HOP-62 NSCLC = tested on: HOP-62 NSCLC
MOLT-4 leukemia = tested on: MOLT-4 leukemia
HCC-2998 colon = tested on: HCC-2998 colon
UACC-62 melanoma = tested on: UACC-62 melanoma
OVCAR-5 ovarian = tested on: OVCAR-5 ovarian
SNB-19 CNS = tested on: SNB-19 CNS
786-0 renal = tested on: 786-0 renal
PC-3 prostate = tested on: PC-3 prostate
SN12C renal = tested on: SN12C renal
OVCAR-3 ovarian = tested on: OVCAR-3 ovarian
A549 NSCLC = tested on: A549 NSCLC
DU-145 prostate = tested on: DU-145 prostate
RPMI-8226 leukemia = tested on: RPMI-8226 leukemia
NCI-H23 lung = tested on: NCI-H23 lung
SF-268 CNS = tested on: SF-268 CNS
MALME-3M melanoma = tested on: MALME-3M melanoma
CAKI-1 renal = tested on: CAKI-1 renal
MDA-MB-435 = tested on: MDA-MB-435
EKVX NSCLC = tested on: EKVX NSCLC
BT-549 breast = tested on: BT-549 breast
HT29 colon = tested on: HT29 colon
HCT-15 colon = tested on: HCT-15 colon
MCF7 breast = tested on: MCF7 breast
NCI/ADR-RES ovarian = tested on: NCI/ADR-RES ovarian
OVCAR-4 ovarian = tested on: OVCAR-4 ovarian
M14 melanoma = tested on: M14 melanoma
SK-MEL-28 melanoma = tested on: SK-MEL-28 melanoma
TK-10 renal = tested on: TK-10 renal
ACHN renal = tested on: ACHN renal
IGROV1 ovarian = tested on: IGROV1 ovarian
SF-295 CNS = tested on: SF-295 CNS
NCI-H522 lung = tested on: NCI-H522 lung
NCI-H460 lung = tested on: NCI-H460 lung
HCT-116 colon = tested on: HCT-116 colon
SK-OV-3 ovarian = tested on: SK-OV-3 ovarian
KM12 colon = tested on: KM12 colon
RXF 393 renal = tested on: RXF 393 renal
SF-539 CNS = tested on: SF-539 CNS
COLO 205 colon = tested on: COLO 205 colon
T-47D breast = tested on: T-47D breast
UO-31 renal = tested on: UO-31 renal
HS 578T breast = tested on: HS 578T breast
A498 renal = tested on: A498 renal
SK-MEL-5 melanoma = tested on: SK-MEL-5 melanoma
SNB-75 CNS = tested on: SNB-75 CNS
U251 CNS = tested on: U251 CNS
OVCAR-8 ovarian = tested on: OVCAR-8 ovarian
LOX IMVI melanoma = tested on: LOX IMVI melanoma
MDA-MB-231 breast = tested on: MDA-MB-231 breast
HOP-92 NSCLC = tested on: HOP-92 NSCLC
SR leukemia = tested on: SR leukemia
SK-MEL-2 melanoma = tested on: SK-MEL-2 melanoma
NCI-H226 lung = tested on: NCI-H226 lung
UACC-257 melanoma = tested on: UACC-257 melanoma

COC(=O)C1=CC(NC(=O)OCc2ccccc2)C(C(=O)c2ccccc2)C[C@@H]1Sc1ccccc1 (some centres not stated)
TGI (K-562 leukemia): 7.72 µM
TGI (CCRF-CEM leukemia): 4.99 µM
TGI (HL-60(TB) leukemia): 3.03 µM

COc1ccc(-c2ccc(/C=N/n3c(C)nn(CN4CCN(C)CC4)c3=S)o2)c([N+](=O)[O-])c1
GI50 (SW-620 colon): > 100 µM
TGI (SW-620 colon): > 100 µM
GI50 (HOP-62 NSCLC): 32.9 µM
TGI (HOP-62 NSCLC): > 100 µM
GI50 (MOLT-4 leukemia): 20.5 µM
TGI (MOLT-4 leukemia): 61.3 µM
GI50 (HCC-2998 colon): 34.7 µM
TGI (HCC-2998 colon): > 100 µM
GI50 (K-562 leukemia): 16.2 µM
TGI (K-562 leukemia): 42.4 µM
GI50 (UACC-62 melanoma): 55.4 µM
TGI (UACC-62 melanoma): > 100 µM
GI50 (OVCAR-5 ovarian): 62.6 µM
TGI (OVCAR-5 ovarian): > 100 µM
GI50 (SNB-19 CNS): 58.3 µM
TGI (SNB-19 CNS): > 100 µM
GI50 (786-0 renal): 39.4 µM
TGI (786-0 renal): > 100 µM
GI50 (PC-3 prostate): 24.9 µM
TGI (PC-3 prostate): 92 µM
GI50 (SN12C renal): > 100 µM
TGI (SN12C renal): > 100 µM
GI50 (OVCAR-3 ovarian): 16.2 µM
TGI (OVCAR-3 ovarian): 38.1 µM
GI50 (A549 NSCLC): 60.8 µM
TGI (A549 NSCLC): > 100 µM
GI50 (DU-145 prostate): > 100 µM
TGI (DU-145 prostate): > 100 µM
GI50 (RPMI-8226 leukemia): 20.6 µM
TGI (RPMI-8226 leukemia): 64.6 µM
GI50 (NCI-H23 lung): 26.1 µM
TGI (NCI-H23 lung): 92.5 µM
GI50 (SF-268 CNS): 28.2 µM
TGI (SF-268 CNS): > 100 µM
GI50 (MALME-3M melanoma): 44.6 µM
TGI (MALME-3M melanoma): > 100 µM
GI50 (CAKI-1 renal): 24.4 µM
TGI (CAKI-1 renal): > 100 µM
GI50 (MDA-MB-435): 14.2 µM
TGI (MDA-MB-435): 31 µM
GI50 (CCRF-CEM leukemia): 22 µM
TGI (CCRF-CEM leukemia): 61.4 µM
GI50 (EKVX NSCLC): > 100 µM
TGI (EKVX NSCLC): > 100 µM
GI50 (BT-549 breast): > 100 µM
TGI (BT-549 breast): > 100 µM
GI50 (HT29 colon): 28 µM
TGI (HT29 colon): > 100 µM
GI50 (HCT-15 colon): 28.7 µM
TGI (HCT-15 colon): > 100 µM
GI50 (MCF7 breast): 30.4 µM
TGI (MCF7 breast): > 100 µM
GI50 (NCI/ADR-RES ovarian): 21.6 µM
TGI (NCI/ADR-RES ovarian): 50.5 µM
GI50 (OVCAR-4 ovarian): 7.91 µM
TGI (OVCAR-4 ovarian): 35.7 µM
GI50 (M14 melanoma): 42.4 µM
TGI (M14 melanoma): > 100 µM
GI50 (SK-MEL-28 melanoma): 50 µM
TGI (SK-MEL-28 melanoma): > 100 µM
GI50 (TK-10 renal): 24.3 µM
TGI (TK-10 renal): 74.7 µM
GI50 (ACHN renal): 69.4 µM
TGI (ACHN renal): > 100 µM
GI50 (IGROV1 ovarian): 63.4 µM
TGI (IGROV1 ovarian): > 100 µM
GI50 (SF-295 CNS): 18.3 µM
TGI (SF-295 CNS): 48.2 µM
GI50 (NCI-H522 lung): 65 µM
TGI (NCI-H522 lung): > 100 µM
GI50 (NCI-H460 lung): 29.3 µM
TGI (NCI-H460 lung): > 100 µM
GI50 (HCT-116 colon): 21.7 µM
TGI (HCT-116 colon): 57.8 µM
GI50 (SK-OV-3 ovarian): 45 µM
TGI (SK-OV-3 ovarian): > 100 µM
GI50 (KM12 colon): 17.7 µM
TGI (KM12 colon): 42.9 µM
GI50 (HL-60(TB) leukemia): 14.9 µM
TGI (HL-60(TB) leukemia): 33.3 µM
GI50 (RXF 393 renal): 30.2 µM
TGI (RXF 393 renal): > 100 µM
GI50 (SF-539 CNS): 54.4 µM
TGI (SF-539 CNS): > 100 µM
GI50 (COLO 205 colon): 52.5 µM
TGI (COLO 205 colon): > 100 µM
GI50 (T-47D breast): 45.6 µM
TGI (T-47D breast): > 100 µM
GI50 (UO-31 renal): > 100 µM
TGI (UO-31 renal): > 100 µM

c1ccc(Cn2c(-c3ccc(OC[C@H](C4CCNCC4)n4c(-c5ccccc5)nc5ccccc54)cc3)nc3ccccc32)cc1
GI50 (HS 578T breast): 2 µM
TGI (HS 578T breast): 4.79 µM
GI50 (A498 renal): 1.48 µM
TGI (A498 renal): 2.83 µM
GI50 (NCI/ADR-RES ovarian): 7.74 µM
TGI (NCI/ADR-RES ovarian): > 80.7 µM
GI50 (TK-10 renal): 1.63 µM
TGI (TK-10 renal): 3.08 µM
GI50 (T-47D breast): 2.19 µM
TGI (T-47D breast): 4.72 µM

C/C(=C\c1ccc(Cl)c(Cl)c1)[N+](=O)[O-]
GI50 (SW-620 colon): 1.33 µM
TGI (HOP-62 NSCLC): 3.15 µM
TGI (HS 578T breast): 9.44 µM
GI50 (A498 renal): 8.21 µM
TGI (A498 renal): 21.5 µM and 14.8 µM
GI50 (MOLT-4 leukemia): 2.58 µM
TGI (MOLT-4 leukemia): > 100 µM
TGI (HCC-2998 colon): 8.25 µM
GI50 (K-562 leukemia): 0.731 µM
GI50 (UACC-62 melanoma): 1.74 µM
TGI (UACC-62 melanoma): 3.51 µM and 4.8 µM
GI50 (OVCAR-5 ovarian): 2.25 µM
TGI (OVCAR-5 ovarian): 5.09 µM and 4.62 µM
GI50 (SK-MEL-5 melanoma): 3.05 µM
TGI (SK-MEL-5 melanoma): 11.3 µM and 3.94 µM
TGI (SNB-19 CNS): 9.45 µM
TGI (786-0 renal): 3.18 µM
GI50 (PC-3 prostate): 1.85 µM
TGI (PC-3 prostate): 3.81 µM
GI50 (SNB-75 CNS): 1.46 µM
TGI (U251 CNS): 2.71 µM
TGI (SN12C renal): 4.08 µM
TGI (OVCAR-3 ovarian): 3.08 µM and 3.47 µM
TGI (A549 NSCLC): 3.41 µM and 4.52 µM
TGI (DU-145 prostate): 2.92 µM and 3.12 µM
GI50 (RPMI-8226 leukemia): 0.538 µM
TGI (RPMI-8226 leukemia): 3.17 µM
TGI (NCI-H23 lung): 5.36 µM
GI50 (SF-268 CNS): 1.66 µM
TGI (SF-268 CNS): 3.31 µM and 3.33 µM
GI50 (MALME-3M melanoma): 1.61 µM
TGI (MALME-3M melanoma): 3.36 µM and 3.83 µM
GI50 (CAKI-1 renal): 1.1 µM
TGI (CAKI-1 renal): 2.51 µM
GI50 (MDA-MB-435): 1.84 µM
TGI (MDA-MB-435): 3.71 µM and 4.55 µM
TGI (EKVX NSCLC): 3.9 µM and 4.58 µM
GI50 (BT-549 breast): 7.55 µM
TGI (BT-549 breast): 20.1 µM
TGI (HT29 colon): 5.9 µM
TGI (HCT-15 colon): 4.13 µM and 3.18 µM
TGI (MCF7 breast): 17.3 µM
TGI (OVCAR-4 ovarian): 3.09 µM
GI50 (OVCAR-8 ovarian): 1.62 µM
TGI (OVCAR-8 ovarian): 3.4 µM
GI50 (M14 melanoma): 1.57 µM
TGI (M14 melanoma): 3.13 µM and 3.16 µM
GI50 (SK-MEL-28 melanoma): 1.75 µM
TGI (SK-MEL-28 melanoma): 3.14 µM and 4.81 µM
GI50 (TK-10 renal): 1.67 µM
TGI (TK-10 renal): 3.19 µM and 3.6 µM
GI50 (ACHN renal): 1.77 µM
TGI (ACHN renal): 3.6 µM and 3.82 µM
GI50 (LOX IMVI melanoma): 1.19 µM
TGI (LOX IMVI melanoma): 2.62 µM and 0.955 µM
TGI (MDA-MB-231 breast): 3.94 µM
GI50 (HOP-92 NSCLC): 1.43 µM
TGI (HOP-92 NSCLC): 2.99 µM
TGI (IGROV1 ovarian): 3.85 µM
GI50 (SF-295 CNS): 2.19 µM
TGI (SF-295 CNS): 5.72 µM and 8.01 µM
TGI (NCI-H522 lung): 3.14 µM
GI50 (NCI-H460 lung): 3.15 µM
TGI (NCI-H460 lung): 14 µM and > 100 µM
GI50 (HCT-116 colon): 1.37 µM
TGI (HCT-116 colon): 2.85 µM and 10.2 µM
GI50 (SK-OV-3 ovarian): 16.3 µM
TGI (SK-OV-3 ovarian): 29.8 µM
GI50 (KM12 colon): 1.71 µM
TGI (KM12 colon): 3.29 µM and 4.16 µM
GI50 (HL-60(TB) leukemia): 1.94 µM
TGI (HL-60(TB) leukemia): 6.02 µM and 5.95 µM
GI50 (SR leukemia): 2.38 µM
TGI (SR leukemia): 11.4 µM and 6.68 µM
GI50 (RXF 393 renal): 1.51 µM
TGI (RXF 393 renal): 2.9 µM
TGI (SK-MEL-2 melanoma): 4.05 µM and 4.03 µM
GI50 (NCI-H226 lung): 17.5 µM
TGI (NCI-H226 lung): 42.6 µM and 5.26 µM
TGI (UACC-257 melanoma): 2.56 µM and 2.84 µM
TGI (SF-539 CNS): 5.77 µM
GI50 (COLO 205 colon): 1.78 µM
TGI (COLO 205 colon): 3.27 µM
TGI (UO-31 renal): 2.61 µM and 2.66 µM
